Read-outs that look alike come from different tables or passages of the source.
Key:
Type in all cases: cell-based
[1] = tested on: Propionibacterium acnes ATCC 6919; assay: time kill assay, P. acnes
Method: A microbiological study used a time kill assay with Propionibacterium acnes ATCC 6919 as an indicator of the antibacterial activity of proguanil. […] A broth only control as well as a solvent 10% DGME control were added to the vials so that the total test volume was 15 ml. One hundred μl of a freshly grown suspension of P. acnes 6919 was then added at time zero so that the initial bacterial suspension was between 10^7 and 10^8 CFU/ml. All test and control suspensions were then incubated under anaerobic conditions at 35° C. Aliquots of the test and control suspensions were removed at 24, 48, 72, and 96 hours and plated onto tryptic soy agar in triplicate using a spiral plater. These plates were incubated anaerobically at 35° C. for 3-5 days. Surviving P. acnes colonies were then counted and the CFU/ml of test and control suspensions calculated and graphed.

[2] = tested on: Streptococcus dysgalactiae subsp. equisimilis ATCC 6644; assay: time kill assay, S. dysgalactiae (Group G)
Method: Streptococcus dysgalactiae (Group G) infections can lead to skin diseases such as erysipelas and cellulitis. A time kill assay was used to test the effects of varying concentrations of proguanil on a culture of Streptococcus dysgalactiae subsp. equisimilis ATCC 6644. An inoculum of S. dysgalactiae was prepared and inoculated in vials containing Muller Hinton II broth and proguanil concentrations of 160, 80, 16, 8, and 1.6 μg/ml. A growth control using phosphate buffered saline A (PBSA) plus Mueller Hinton II broth was used in place of the drug because it has no antimicrobial effect. DGME was the solvent used to dissolve the proguanil, accordingly, 10% DGME was used as the solvent control. These inoculated broth solutions were then allowed to incubate for a period of 72 hours. Samples were taken at 0, 4, 24, 48 and 72 hours and spiral plated so the CFU/ml could be calculated. In the experiments, the effects of proguanil on the S. dysgalactiae were observed.

[3] = tested on: Trichomonas vaginalis ATCC 30001; assay: viability over time assay, T. vaginalis; conditions: for viability at 10 µg/mL / viability at 20 µg/mL / viability at 40 µg/mL / viability at 80 µg/mL / viability at 160 µg/mL / viability at 320 µg/mL: Trichomonas vaginalis, ATCC30001
Method: Trichomonas vaginalis infections in females usually involves vaginal discharge and vulvovaginal irritation but is usually asymptomatic in males. A viability over time assay was used to test the effects of varying concentrations of proguanil on a culture of the protozoa Trichomonas vaginalis ATCC 30001. A suspension of T. vaginalis was prepared and inoculated into microtiter plate wells containing supplemented Trichomonas Medium and proguanil concentrations of 320, 160, 80, 40, 20, and 10 μg/ml. A growth control using pyrogen-free water plus supplemented Trichomonas medium was used in place of the drug because it has no antiprotozoal effect. DGME was the solvent used to dissolve the proguanil, accordingly, a small amount of 10% DGME was used as the solvent control in the medium. These inoculated broth solutions were then allowed to incubate for a period of 6 hours. Samples were taken at 1, 3, and 6 hours and observed using a phase contrast microscope. Multiple microscope fields were counted and the number of viable and nonviable T. vaginalis recorded. In the experiment, the effects of proguanil on the T. vaginalis were observed as loss of flagella movement, loss of undulating membrane movement, and loss of cell refractivity.

Question: Which results are given for `CC(C)NC(=N)NC(=N)Nc1ccc(Cl)cc1` [Proguanil, N-(4-Chlorophenyl)-N′-(1-methylethyl)imidodicarbonimidic diamide]?
Answer: bacteria eliminated ([1]; 160 μg/ml, by 24 hours): 97-100%; Relative Sensitivity (Compared to Other Strains Tested) ([1]; Propionibacterium acnes ATCC 6919): Sensitive; Approximate Inhibitory Level ([1]; Propionibacterium acnes ATCC 6919, level at which partial or total inhibition of growth is observed): 80 to 160 µg/mL; killing of P. acnes ([1]; between 0.16 and 16 μg/ml): not very effective; effect on CFU/ml ([2]; 80 μg/ml, time zero to 72 hours): only a slight increase in CFU/ml; effect on the bacteria ([2]; 160 μg/ml): strong inhibition and killing effect; CFU/ml ([2]; 160 μg/ml, T=24, 48 and 72 hours): 0 CFU/ml; Relative Sensitivity (Compared to Other Strains Tested) ([2]; Streptococcus dysgalactiae (Group G) ATCC 6644): Sensitive; Approximate Inhibitory Level ([2]; Streptococcus dysgalactiae (Group G) ATCC 6644, level at which partial or total inhibition of growth is observed): 80 to 160 µg/mL; effect on CFU/ml ([2]; all other concentrations (16, 8, 1.6 μg/ml)): very similar and near the CFU/ml of the Mueller Hinton II broth control; Nonviable ([3]; 10 ug/ml, 1 Hour): 24; Viable ([3]; 10 ug/ml, 1 Hour): 26; Nonviable ([3]; 10 ug/ml, 3 Hour): 25; Viable ([3]; 10 ug/ml, 3 Hour): 25; Nonviable ([3]; 10 ug/ml, 6 Hour): 25; Viable ([3]; 10 ug/ml, 6 Hour): 25; Nonviable ([3]; 20 ug/ml, 1 Hour): 19; Viable ([3]; 20 ug/ml, 1 Hour): 31; Nonviable ([3]; 20 ug/ml, 3 Hour): 28; Viable ([3]; 20 ug/ml, 3 Hour): 22; Nonviable ([3]; 20 ug/ml, 6 Hour): 29; Viable ([3]; 20 ug/ml, 6 Hour): 21; Nonviable ([3]; 40 ug/ml, 1 Hour): 22; Viable ([3]; 40 ug/ml, 1 Hour): 28; Nonviable ([3]; 40 ug/ml, 3 Hour): 25; Viable ([3]; 40 ug/ml, 3 Hour): 25; Nonviable ([3]; 40 ug/ml, 6 Hour): 27; Viable ([3]; 40 ug/ml, 6 Hour): 26; Nonviable ([3]; 80 ug/ml, 1 Hour): 28; Viable ([3]; 80 ug/ml, 1 Hour): 22; Nonviable ([3]; 80 ug/ml, 3 Hour): 32; Viable ([3]; 80 ug/ml, 3 Hour): 18; Nonviable ([3]; 80 ug/ml, 6 Hour): 34; Viable ([3]; 80 ug/ml, 6 Hour): 8; effect on T. vaginalis viability ([3]; 80 μg/ml, at 3 and 6 hours): next greatest effect; Nonviable ([3]; 160 ug/ml, 1 Hour): 30; Viable ([3]; 160 ug/ml, 1 Hour): 20; Nonviable ([3]; 160 ug/ml, 3 Hour): 27; Viable ([3]; 160 ug/ml, 3 Hour): 24; Nonviable ([3]; 160 ug/ml, 6 Hour): 43; Viable ([3]; 160 ug/ml, 6 Hour): 9; effect on T. vaginalis ([3]; 160 μg/ml, at 6 hours): strong inhibition and killing effect; Nonviable ([3]; 320 ug/ml, 1 Hour): 32; Viable ([3]; 320 ug/ml, 1 Hour): 18; Nonviable ([3]; 320 ug/ml, 3 Hour): 40; Viable ([3]; 320 ug/ml, 3 Hour): 13; Nonviable ([3]; 320 ug/ml, 6 Hour): 14; Viable ([3]; 320 ug/ml, 6 Hour): 0; effect on T. vaginalis ([3]; 320 μg/ml, at 1 hour): early inhibition and killing effect; surviving T. vaginalis ([3]; 320 μg/ml, at 6 hours): no surviving T. vaginalis could be observed; Relative Sensitivity (Compared to Other Strains Tested) ([3]; Trichomonas vaginalis (parasitic protozoan) ATCC 30001): Very Sensitive; Approximate Inhibitory Level ([3]; Trichomonas vaginalis (parasitic protozoan) ATCC 30001, level at which partial or total inhibition of growth is observed): 80 µg/mL; viability at 10 µg/mL ([3]; 10 ug/ml, 1 Hour, read-out: PerCent Viable): 52%; viability at 10 µg/mL ([3]; 10 ug/ml, 1 Hour, read-out: Percent Viable of Growth Control): 118%; viability at 10 µg/mL ([3]; 10 ug/ml, 3 Hour, read-out: PerCent Viable): 50%; viability at 10 µg/mL ([3]; 10 ug/ml, 3 Hour, read-out: Percent Viable of Growth Control): 96.2%; viability at 10 µg/mL ([3]; 10 ug/ml, 6 Hour, read-out: PerCent Viable): 50%; viability at 10 µg/mL ([3]; 10 ug/ml, 6 Hour, read-out: Percent Viable of Growth Control): 86.2%; viability at 20 µg/mL ([3]; 20 ug/ml, 1 Hour, read-out: PerCent Viable): 62%; viability at 20 µg/mL ([3]; 20 ug/ml, 1 Hour, read-out: Percent Viable of Growth Control): 140%; viability at 20 µg/mL ([3]; 20 ug/ml, 3 Hour, read-out: PerCent Viable): 44%; viability at 20 µg/mL ([3]; 20 ug/ml, 3 Hour, read-out: Percent Viable of Growth Control): 84.6%; viability at 20 µg/mL ([3]; 20 ug/ml, 6 Hour, read-out: PerCent Viable): 42%; viability at 20 µg/mL ([3]; 20 ug/ml, 6 Hour, read-out: Percent Viable of Growth Control): 72.4%; viability at 40 µg/mL ([3]; 40 ug/ml, 1 Hour, read-out: PerCent Viable): 56%; viability at 40 µg/mL ([3]; 40 ug/ml, 1 Hour, read-out: Percent Viable of Growth Control): 126%; viability at 40 µg/mL ([3]; 40 ug/ml, 3 Hour, read-out: PerCent Viable): 50%; viability at 40 µg/mL ([3]; 40 ug/ml, 3 Hour, read-out: Percent Viable of Growth Control): 96.2%; viability at 40 µg/mL ([3]; 40 ug/ml, 6 Hour, read-out: PerCent Viable): 49.1%; viability at 40 µg/mL ([3]; 40 ug/ml, 6 Hour, read-out: Percent Viable of Growth Control): 84.6%; viability at 80 µg/mL ([3]; 80 ug/ml, 1 Hour, read-out: PerCent Viable): 44%; viability at 80 µg/mL ([3]; 80 ug/ml, 1 Hour, read-out: Percent Viable of Growth Control): 99.4%; viability at 80 µg/mL ([3]; 80 ug/ml, 3 Hour, read-out: PerCent Viable): 36%; viability at 80 µg/mL ([3]; 80 ug/ml, 3 Hour, read-out: Percent Viable of Growth Control): 69.2%; viability at 80 µg/mL ([3]; 80 ug/ml, 6 Hour, read-out: PerCent Viable): 19%; viability at 80 µg/mL ([3]; 80 ug/ml, 6 Hour, read-out: Percent Viable of Growth Control): 32.8%; viability at 160 µg/mL ([3]; 160 ug/ml, 1 Hour, read-out: PerCent Viable): 40%; viability at 160 µg/mL ([3]; 160 ug/ml, 1 Hour, read-out: Percent Viable of Growth Control): 90.4%; viability at 160 µg/mL ([3]; 160 ug/ml, 3 Hour, read-out: PerCent Viable): 47.1%; viability at 160 µg/mL ([3]; 160 ug/ml, 3 Hour, read-out: Percent Viable of Growth Control): 90.5%; viability at 160 µg/mL ([3]; 160 ug/ml, 6 Hour, read-out: PerCent Viable): 17.3%; viability at 160 µg/mL ([3]; 160 ug/ml, 6 Hour, read-out: Percent Viable of Growth Control): 29.8%; viability at 320 µg/mL ([3]; 320 ug/ml, 1 Hour, read-out: PerCent Viable): 36%; viability at 320 µg/mL ([3]; 320 ug/ml, 1 Hour, read-out: Percent Viable of Growth Control): 81.3%; viability at 320 µg/mL ([3]; 320 ug/ml, 3 Hour, read-out: PerCent Viable): 24.5%; viability at 320 µg/mL ([3]; 320 ug/ml, 3 Hour, read-out: Percent Viable of Growth Control): 47.2%; viability at 320 µg/mL ([3]; 320 ug/ml, 6 Hour, read-out: PerCent Viable): 0%; viability at 320 µg/mL ([3]; 320 ug/ml, 6 Hour, read-out: Percent Viable of Growth Control): 0%
